# Measured values published in patent publication US20260258000A1, “THYMIDYLATE SYNTHASE INHIBITORS AND USES THEREOF” (University of Florida Research Foundation, Incorporated, priority 2021, published 2026).
# Tests used:
# PANC-1 cells = assay: Cell viability (MTS) assay, PANC-1; format: cell-based; details: Homo sapiens; PANC-1, 72 hour drug incubation (FIG. 1C)
# Method: (§1) To prepare lysates, 0.5×10^6 PA NC-1 cells were seeded in 100 mm dishes in 10 ml DMEM High glucose and 24 hours later, 5-FU (Sigma) or 19-S were added at the specified concentrations. Cells were harvested after 72 hours and cell pellets were stored at −80° C. For GI50 determination, 3000 MIA PaCa-2 cells. […] After 72 hours, cell viability was assessed by reduction of MTS ((3-4,5-dimethylthiazol-2-yl)-5-(3-carboxymethoxyphenol)-2-(4-sulfophenyl)-2H-tetrazolium) using Cell Titer 96 R Aqueous One Solution Cell Proliferation Assay Kit (Promega), following manufacturer's recommendations. Chemiluminescent output (integration time 1000 ms) was measured on a SpectraMax M3® (Molecular devices). Data were normalized to max/minutes and plotted in GraphPad Prism for GI50 determination. Chemical synthesis details, including characterization of each compound, can be found in the supporting information document associated with this publication.
# CM cells = assay: Cell viability (MTS) assay, CM; format: cell-based; details: 72 hour drug incubation (FIG. 1C)
# [1] = test system: TS protein expression in PANC-1 cells; assay: Immunoblot analysis of TS expression in PANC-1 cells; format: cell-based; details: PANC-1 cells treated 72 hours (FIG. 1D)
# Method: as §1, with “Data were normalized to max/minutes and plotted in GraphPad Prism for GI50 determination. Chemical synthesis details, including characterization of each compound, can be found in the supporting information document associated with this publication.” left out
# Protein lysates were generated using RIPA buffer (Santa Cruz) for 20 minutes on ice, followed by 15 minutes centrifugation at 13,000 rpm, at 4° C. […] Protein was quantified using Bradford Assay (BioRad) following manufacturer's recommendations, standard curves were generated with bovine serum albumin (Fisher).
# 20 μg of total protein lysate was loaded per lane of 10% Tris Glycine Gel (Invitrogen). […] Signal was detected using West Pico Plus chemiluminescent substrate (Thermo Scientific) following manufacturer's recommendations. […] For protein level quantification relative to loading control, densitometric analysis was performed by ImageJ software.
# MIA PaCa-2 cells = assay: Cell viability (MTS) assay, MIA PaCa-2; format: cell-based; details: Homo sapiens, MIA PaCa-2, 72 h
# Method: as §1
# human TS = molecular target: T1, human TS (Homo sapiens, UniProt P04818); assay: Competitive drug displacement assay (tritium TS assay); format: biochemical; details: TS pre-incubated with drug
# T1 construct: 6xHis (N); made in house; host or cells: E. coli BL21 (DE3)
# Method: For these experiments the TS protein was first incubated with each drug, the reaction was then initiated by addition of 5,10-mTHF and dUMP using different concentrations of either 5,10-mTHF or dUMP to change the substrate:drug ratio. If there was competition between one of the substrates and the drug for the same binding site, increasing the substrate concentration will displace more of the pre-bound drug and shift the equilibrium towards the enzyme: substrate complex, thus allowing the conversion of dUMP to proceed (FIG. 5A).
# The competitive drug displacement assay utilized the standard reaction conditions for the tritium based TS catalytic activity assay including 40 μM dUMP (Sigma Aldrich, D3876) with the [5-3H]dUMP tracer (ViTrax, VT122) accounting for 0.06% of the final dUMP concentration and 100 μM 5,10-methylene tetrahydrofolate (defined as 1× dUMP and 1×5,10-mTHF). Concentrations of total dUMP and 5,10-mTHF were then changed relative to these 1× concentrations to concisely indicate the changes in either the substrate or cofactor concentration. […] The remaining components in each 200 μL reaction were consistent in all reactions and included 2 μg of purified human TS in 50 mM KH2PO4 (Sigma Aldrich, P0662) and 100 mM β-mercaptoethanol (Sigma Aldrich, M7522).
# T1 sequence (P04818 whole entry): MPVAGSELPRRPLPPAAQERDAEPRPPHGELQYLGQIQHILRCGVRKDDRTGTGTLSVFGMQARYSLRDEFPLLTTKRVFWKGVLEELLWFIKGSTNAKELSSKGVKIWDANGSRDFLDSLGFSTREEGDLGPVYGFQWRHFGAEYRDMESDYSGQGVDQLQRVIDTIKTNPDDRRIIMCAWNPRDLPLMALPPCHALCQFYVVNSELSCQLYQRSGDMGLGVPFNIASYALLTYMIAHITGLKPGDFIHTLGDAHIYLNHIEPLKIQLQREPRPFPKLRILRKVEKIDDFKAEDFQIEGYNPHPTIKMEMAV
compound,measurement,setting,value
CCc1nc(N)nc(N)c1-c1ccc(N(C)Cc2ccccc2)c([N+](=O)[O-])c1 [Compound 19-S],GI50,PANC-1 cells,8350 nM
same,GI50,CM cells,95 nM
same,TS protein expression (steady-state TS levels),[1],no increase in steady-state TS levels
same,GI50,"MIA PaCa-2 cells; MIA PaCa-2, 72-hour treatment, highest concentration 350 μM (FIG. 4E)",200 to 840 nM
same,GI50,"MIA PaCa-2 cells; MIA PaCa-2, 72 hour drug incubation (FIG. 1C)",1260 nM
same,"dUMP conversion with increasing 5,10-mTHF concentration (drug displacement)","human TS; 5,10-mTHF up to 5×",increased the amount of dUMP conversion
same,dUMP conversion with increasing dUMP concentration (drug displacement),human TS; dUMP up to 5×,the amount of dUMP conversion did not increase
